Measured values published in ChEMBL document CHEMBL1201862, “PubChem BioAssay data set” (2004).
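Where inhibition never reached the appropriate level, the endpoint shown equals the highest concentration tested. Otherwise, values were interpolated linearly from a five-concentration, 48-hour dose response in 96-well plates. GI50: concentration for 50% inhibition of growth.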 Calls of active or inactive are those of the source. Rule as the data show it: active = GI50 up to about 1.1 µM and inactive = higher.

Key:
Assay in all cases: NCI tumour cell line growth inhibition, 48 h
HCT-116 = system: HCT-116
SW-620 = system: SW-620
HOP-92 = system: HOP-92
MDA-N = system: MDA-N
HL-60 = system: HL-60
SN12C = system: SN12C
UO-31 = system: UO-31
NCI-H23 = system: NCI-H23
A549 = system: A549
MOLT-4 = system: MOLT-4
SK-MEL-2 = system: SK-MEL-2
HOP-62 = system: HOP-62
OVCAR-5 = system: OVCAR-5
SK-MEL-28 = system: SK-MEL-28
MDA-MB-231 = system: MDA-MB-231
SF-539 = system: SF-539
HCC 2998 = system: HCC 2998
UACC-62 = system: UACC-62
PC-3 = system: PC-3
M14 = system: M14
SR = system: SR
HCT-15 = system: HCT-15
UACC-257 = system: UACC-257
ACHN = system: ACHN
NCI/ADR-RES = system: NCI/ADR-RES
CAKI-1 = system: CAKI-1
NCI-H460 = system: NCI-H460
SF-268 = system: SF-268
SF-295 = system: SF-295
OVCAR-4 = system: OVCAR-4
SK-MEL-5 = system: SK-MEL-5
SK-OV-3 = system: SK-OV-3
Malme-3M = system: Malme-3M
OVCAR-8 = system: OVCAR-8
K562 = system: K562
HT-29 = system: HT-29
IGROV-1 = system: IGROV-1
786-0 = system: 786-0
COLO 205 = system: COLO 205
RXF 393 = system: RXF 393
U-251 = system: U-251
MDA-MB-435 = system: MDA-MB-435
NCI-H226 = system: NCI-H226
KM12 = system: KM12
OVCAR-3 = system: OVCAR-3
SNB-19 = system: SNB-19
EKVX = system: EKVX
T47D = system: T47D
MCF7 = system: MCF7
NCI-H522 = system: NCI-H522
LOX IMVI = system: LOX IMVI
SNB-75 = system: SNB-75
A498 = system: A498
DU-145 = system: DU-145
Hs-578T = system: Hs-578T
RPMI-8226 = system: RPMI-8226
TK-10 = system: TK-10
BT-549 = system: BT-549

For `COc1ccccc1N(CN1C(=O)CCC1C(=O)O)C(C)=O` (stereo not given), the GI50 (HCT-116) was > 100 µM (inactive), the GI50 (SW-620) was > 100 µM (inactive) and the GI50 (HOP-92) was > 100 µM (inactive). For the same molecule, the GI50 (MDA-N) was > 100 µM (inactive), the GI50 (HL-60) was > 100 µM (inactive) and the GI50 (SN12C) was > 100 µM (inactive). The GI50 (UO-31) was > 100 µM (inactive), the GI50 (NCI-H23) was > 100 µM (inactive) and the GI50 (A549) was > 100 µM (inactive). For the same molecule, the GI50 (MOLT-4) was > 100 µM (inactive), the GI50 (SK-MEL-2) was > 100 µM (inactive) and the GI50 (HOP-62) was > 100 µM (inactive). For the same molecule, the GI50 (OVCAR-5) was > 100 µM (inactive), the GI50 (SK-MEL-28) was > 100 µM (inactive) and the GI50 (MDA-MB-231) was > 100 µM (inactive). The GI50 (SF-539) was > 100 µM (inactive), the GI50 (HCC 2998) was > 100 µM (inactive) and the GI50 (UACC-62) was > 100 µM (inactive). The GI50 (PC-3) was > 100 µM (inactive), the GI50 (M14) was > 100 µM (inactive) and the GI50 (SR) was 72.6 µM (inactive). For the same molecule, the GI50 (HCT-15) was > 100 µM, the GI50 (UACC-257) was > 100 µM (inactive) and the GI50 (ACHN) was > 100 µM (inactive). The GI50 (NCI/ADR-RES) was > 100 µM (inactive), the GI50 (CAKI-1) was > 100 µM (inactive) and the GI50 (NCI-H460) was > 100 µM (inactive). The GI50 (SF-268) was 53 µM (inactive), the GI50 (SF-295) was > 100 µM (inactive) and the GI50 (OVCAR-4) was > 100 µM (inactive). For the same molecule, the GI50 (SK-MEL-5) was > 100 µM (inactive), the GI50 (SK-OV-3) was > 100 µM (inactive) and the GI50 (Malme-3M) was > 100 µM (inactive). For the same molecule, the GI50 (OVCAR-8) was > 100 µM (inactive), the GI50 (K562) was > 100 µM (inactive) and the GI50 (HT-29) was > 100 µM (inactive). The GI50 (IGROV-1) was 0.138 µM (active), the GI50 (786-0) was > 100 µM (inactive) and the GI50 (COLO 205) was > 100 µM (inactive). The GI50 (RXF 393) was 74.5 µM (inactive), the GI50 (U-251) was > 100 µM (inactive) and the GI50 (MDA-MB-435) was > 100 µM (inactive). For the same molecule, the GI50 (NCI-H226) was > 100 µM (inactive), the GI50 (KM12) was > 100 µM (inactive) and the GI50 (OVCAR-3) was > 100 µM (inactive). For the same molecule, the GI50 (SNB-19) was > 100 µM (inactive), the GI50 (EKVX) was > 100 µM (inactive) and the GI50 (T47D) was > 100 µM (inactive). The GI50 (MCF7) was > 100 µM (inactive), the GI50 (NCI-H522) was > 100 µM (inactive) and the GI50 (LOX IMVI) was > 100 µM (inactive). For the same molecule, the GI50 (SNB-75) was > 100 µM (inactive), the GI50 (A498) was > 100 µM (inactive) and the GI50 (DU-145) was > 100 µM (inactive). For the same molecule, the GI50 (Hs-578T) was > 100 µM (inactive), the GI50 (RPMI-8226) was > 100 µM (inactive) and the GI50 (TK-10) was > 100 µM (inactive).

With `c1ccc(Nn2c(CCCCCCCCc3nnc(COc4ccccc4)n3Nc3ccccc3)nnc2COc2ccccc2)cc1` the GI50 (HCT-116) was 16.2 µM (inactive), the GI50 (MDA-N) was 11 µM (inactive) and the GI50 (A549) was 11.8 µM (inactive). For the same molecule, the GI50 (MOLT-4) was 18 µM (inactive), the GI50 (MDA-MB-231) was 20 µM (inactive) and the GI50 (SF-539) was 12.8 µM (inactive). The GI50 (UACC-62) was 1.74 µM (inactive), the GI50 (UACC-257) was 13.9 µM (inactive) and the GI50 (BT-549) was 58.5 µM (inactive). The GI50 (HT-29) was 24.3 µM (inactive), the GI50 (RXF 393) was 48.5 µM (inactive) and the GI50 (SNB-19) was 36.9 µM (inactive). The GI50 (EKVX) was 32.7 µM (inactive), the GI50 (MCF7) was 11.5 µM (inactive) and the GI50 (NCI-H522) was 16.1 µM (inactive). For the same molecule, the GI50 (A498) was 87.9 µM (inactive) and the GI50 (Hs-578T) was 72.8 µM (inactive).

With `C=CCOC(C)(C)C1=CCC(C)CC1` (stereo not given) the GI50 (HCT-116) was > 100 µM (inactive), the GI50 (SW-620) was > 100 µM (inactive) and the GI50 (HOP-92) was > 100 µM (inactive). For the same molecule, the GI50 (MDA-N) was > 100 µM (inactive), the GI50 (HL-60) was > 100 µM (inactive) and the GI50 (SN12C) was > 100 µM (inactive). The GI50 (UO-31) was > 100 µM (inactive), the GI50 (NCI-H23) was > 100 µM (inactive) and the GI50 (A549) was > 100 µM (inactive). For the same molecule, the GI50 (MOLT-4) was > 100 µM (inactive), the GI50 (HOP-62) was > 100 µM (inactive) and the GI50 (OVCAR-5) was > 100 µM (inactive). For the same molecule, the GI50 (SK-MEL-28) was > 100 µM (inactive), the GI50 (SF-539) was > 100 µM (inactive) and the GI50 (HCC 2998) was > 100 µM (inactive). The GI50 (UACC-62) was > 100 µM (inactive), the GI50 (PC-3) was > 100 µM (inactive) and the GI50 (M14) was > 100 µM (inactive). For the same molecule, the GI50 (SR) was > 10 µM (inactive), the GI50 (HCT-15) was > 100 µM and the GI50 (UACC-257) was > 100 µM (inactive). For the same molecule, the GI50 (BT-549) was > 100 µM (inactive), the GI50 (ACHN) was > 100 µM (inactive) and the GI50 (CAKI-1) was > 100 µM (inactive). For the same molecule, the GI50 (NCI-H460) was > 100 µM (inactive), the GI50 (SF-268) was > 100 µM (inactive) and the GI50 (SF-295) was > 100 µM (inactive). For the same molecule, the GI50 (OVCAR-4) was > 100 µM (inactive), the GI50 (SK-MEL-5) was > 100 µM (inactive) and the GI50 (SK-OV-3) was > 100 µM (inactive). The GI50 (Malme-3M) was > 100 µM (inactive), the GI50 (OVCAR-8) was > 100 µM (inactive) and the GI50 (HT-29) was > 100 µM (inactive). For the same molecule, the GI50 (IGROV-1) was > 100 µM (inactive), the GI50 (786-0) was > 100 µM (inactive) and the GI50 (COLO 205) was > 100 µM (inactive). For the same molecule, the GI50 (RXF 393) was > 100 µM (inactive), the GI50 (U-251) was > 100 µM (inactive) and the GI50 (MDA-MB-435) was > 100 µM (inactive). The GI50 (KM12) was > 100 µM (inactive), the GI50 (OVCAR-3) was > 100 µM (inactive) and the GI50 (SNB-19) was > 100 µM (inactive). For the same molecule, the GI50 (EKVX) was > 100 µM (inactive), the GI50 (MCF7) was > 100 µM (inactive) and the GI50 (NCI-H522) was > 100 µM (inactive). For the same molecule, the GI50 (SNB-75) was > 100 µM (inactive), the GI50 (A498) was > 100 µM (inactive) and the GI50 (DU-145) was > 100 µM (inactive). The GI50 (Hs-578T) was > 100 µM (inactive), the GI50 (RPMI-8226) was > 100 µM (inactive) and the GI50 (TK-10) was > 100 µM (inactive).
